Data taken from the supplement of paper PMC10307832.

How the values were obtained:
Assay in all cases: relative viability (nuclei count vs DMSO), 5 days (fraction); higher = more cells survive
TGX 221 + Phenformin = compound: CC1=CN2C(=O)C=C(N=C2C(=C1)C(C)NC3=CC=CC=C3)N4CCOCC4 [TGX 221] + N=C(N)NC(=N)NCCc1ccccc1 [Phenformin] (partner 250 µM)
Outline: (§1)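 Five library-drug doses in √10 steps were combined with a fixed anchor-drug dose, or a single drug was given alone, by pin tool to lung cancer cell lines in 1536-well plates the day after seeding. Nuclei were stained and counted after 5 days. Relative viability is the nuclei count in treated wells over that in vehicle wells, taken as the median of duplicate plates.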

[1] = compound: C1=CC=C(C(=C1)C2=CC=C(C=C2)C3=CSC4=C3C(=C(C(=O)N4)C#N)O)O + Cc1nc(Nc2ncc(C(=O)Nc3c(C)cccc3Cl)s2)cc(N2CCN(CCO)CC2)n1 [Dasatinib] (partner 0.075 µM)
Outline: as §1

[2] = compound: C1=CC=C(C(=C1)C2=CC=C(C=C2)C3=CSC4=C3C(=C(C(=O)N4)C#N)O)O + COc1cccc2cc(-c3nc([C@H]4CC[C@H](C(=O)O)CC4)n4ncnc(N)c34)[nH]c12 [OSI-027] (partner 0.5 µM)
Outline: as §1

TGX 221 + Trametinib = compound: CC1=CN2C(=O)C=C(N=C2C(=C1)C(C)NC3=CC=CC=C3)N4CCOCC4 [TGX 221] + CC(=O)Nc1cccc(-n2c(=O)n(C3CC3)c(=O)c3c(Nc4ccc(I)cc4F)n(C)c(=O)c(C)c32)c1 [Trametinib] (partner 0.02 µM)
Outline: as §1

Cell Line | relative viability (TGX 221 + Phenformin; first compound 0.08 µM) | relative viability (TGX 221 + Phenformin; first compound 0.253 µM) | relative viability (TGX 221 + Phenformin; first compound 0.8 µM) | relative viability (TGX 221 + Phenformin; first compound 2.53 µM) | relative viability (TGX 221 + Phenformin; first compound 8 µM) | relative viability ([1]; first compound 0.08 µM) | relative viability ([1]; first compound 0.253 µM) | relative viability ([1]; first compound 0.8 µM) | relative viability ([1]; first compound 2.53 µM) | relative viability ([1]; first compound 8 µM) | relative viability ([2]; first compound 0.08 µM) | relative viability ([2]; first compound 0.253 µM) | relative viability ([2]; first compound 0.8 µM) | relative viability ([2]; first compound 2.53 µM) | relative viability ([2]; first compound 8 µM) | relative viability (TGX 221 + Trametinib; first compound 0.08 µM) | relative viability (TGX 221 + Trametinib; first compound 0.253 µM) | relative viability (TGX 221 + Trametinib; first compound 0.8 µM) | relative viability (TGX 221 + Trametinib; first compound 2.53 µM) | relative viability (TGX 221 + Trametinib; first compound 8 µM)
LXF-289 | 0.496 | 0.479 | 0.546 | 0.458 | 0.538 | 0.185 | 0.188 | 0.223 | 0.23 | 0.231 | 0.666 | 0.801 | 0.778 | 0.865 | 0.732 | 0.67 | 0.757 | 0.708 | 0.674 | 0.744
NCI-H23 | 0.814 | 0.699 | 0.811 | 0.836 | 0.773 | 0.654 | 0.677 | 0.755 | 1.01 | 0.604 | 0.69 | 0.523 | 0.596 | 0.575 | 0.537 | 0.279 | 0.329 | 0.338 | 0.403 | 0.328
NCI-H322M | 0.761 | 0.735 | 0.715 | 0.758 | 0.682 | 0.245 | 0.244 | 0.234 | 0.243 | 0.273 | 0.59 | 0.489 | 0.502 | 0.576 | 0.514 | 0.47 | 0.488 | 0.508 | 0.504 | 0.5
NCI-H358 | 0.355 | 0.31 | 0.296 | 0.382 | 0.324 | 0.211 | 0.2 | 0.174 | 0.139 | 0.196 | 0.787 | 0.724 | 0.758 | 0.779 | 0.736 | 0.13 | 0.127 | 0.153 | 0.132 | 0.132
NCI-H441 | 0.791 | 0.911 | 0.79 | 0.785 | 1.09 | 0.437 | 0.626 | 0.582 | 0.636 | 0.538 | 0.647 | 0.669 | 0.565 | 0.822 | 0.646 | 0.416 | 0.473 | 0.45 | 0.371 | 0.354
NCI-H460 | 0.508 | 0.466 | 0.53 | 0.536 | 0.467 | 0.37 | 0.406 | 0.485 | 0.577 | 0.506 | 0.36 | 0.755 | 0.377 | 0.868 | 0.462 | 0.104 | 0.121 | 0.202 | 0.171 | 0.0976
NCI-H520 | 0.469 | 0.352 | 0.355 | 0.379 | 0.315 | 0.193 | 0.179 | 0.258 | 0.202 | 0.212 | 0.174 | 0.192 | 0.237 | 0.304 | 0.233 | 0.521 | 0.591 | 0.744 | 0.597 | 0.505
NCI-H522 | 0.699 | 0.581 | 0.597 | 0.669 | 0.657 | 0.849 | 0.761 | 0.957 | 0.829 | 0.837 | 0.606 | 0.73 | 0.86 | 0.771 | 0.657 | 0.658 | 0.822 | 0.719 | 0.623 | 0.661
NCI-H596 | 0.726 | 0.753 | 0.852 | 0.678 | 0.874 | 0.568 | 0.678 | 0.713 | 0.557 | 0.476 | 0.55 | 0.722 | 0.692 | 0.732 | 0.553 | 0.654 | 0.807 | 0.82 | 0.908 | 0.774
NCI-H647 | 0.457 | 0.414 | 0.405 | 0.427 | 0.457 | 0.153 | 0.189 | 0.191 | 0.183 | 0.1 | 0.694 | 0.578 | 0.568 | 0.628 | 0.362 | 0.436 | 0.375 | 0.355 | 0.247 | 0.297
NCI-H650 | 0.433 | 0.461 | 0.404 | 0.417 | 0.439 | 0.45 | 0.449 | 0.428 | 0.474 | 0.428 | 0.474 | 0.469 | 0.501 | 0.587 | 0.58 | 0.932 | 0.894 | 0.974 | 0.908 | 0.861
NCI-H661 | 0.308 | 0.279 | 0.288 | 0.288 | 0.287 | 0.771 | 0.916 | 1.07 | 0.834 | 0.801 | 0.648 | 0.739 | 0.524 | 0.649 | 0.664 | 0.584 | 0.544 | 0.569 | 0.591 | 0.495
NCI-H727 | 0.635 | 0.621 | 0.537 | 0.486 | 0.51 | 0.507 | 0.415 | 0.483 | 0.285 | 0.419 | 0.474 | 0.671 | 0.668 | 0.519 | 0.52 | 0.476 | 0.362 | 0.409 | 0.392 | 0.366
NCI-H838 | 0.607 | 0.534 | 0.496 | 0.471 | 0.428 | 0.251 | 0.295 | 0.317 | 0.267 | 0.269 | 0.379 | 0.394 | 0.388 | 0.342 | 0.354 | 0.49 | 0.456 | 0.45 | 0.402 | 0.355
NCI-H1355 | 0.439 | 0.465 | 0.439 | 0.419 | 0.433 | 0.619 | 0.668 | 0.708 | 0.64 | 0.639 | 0.379 | 0.44 | 0.43 | 0.351 | 0.317 | 0.448 | 0.396 | 0.406 | 0.359 | 0.302
NCI-H1395 | 0.398 | 0.435 | 0.401 | 0.436 | 0.409 | 0.382 | 0.368 | 0.45 | 0.381 | 0.421 | 0.501 | 0.647 | 0.637 | 0.644 | 0.576 | 0.93 | 0.935 | 0.831 | 0.767 | 0.761
